test system: HSV-2 G strain; assay: HSV-2 Antiviral Assay (Vero cells, cell viability); assay type: cell-based; settings: Human alphaherpesvirus 2, Vero, 120 h, Vero cells, 160 TCID50 HSV-2 G strain, 5 days, cell viability
Procedure, shortened: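 Vero cells (1.0×10^4/well, attached overnight) given 8-point 3-fold compound dilutions (0.5% DMSO) then infected with 160 TCID50 HSV-2 G strain in 2% FBS medium for 5 days at 37 °C. Protection read as cell viability by WST-8 absorbance at 460 and 620 nm after 3 h.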

EC50	Structure (SMILES)
1000 to 5000 nM	Cc1nc(N2CC(C(=O)O)CN(c3ccc(-c4cc(F)ccc4F)cc3)C2=O)sc1S(N)(=O)=O (centres unmarked) [Compound 380]
< 100 nM	Cc1nc(N2CCCN(c3ccc(-c4cc(F)cc5nc(C(F)(F)F)sc45)cc3)C2=O)sc1S(N)(=O)=O [Compound 257]
< 100 nM	COc1c(F)cc(F)cc1-c1ccc(N2C[C@H](C(F)(F)F)CN(c3nc(C)c(S(N)(=O)=O)s3)C2=O)cc1 (single isomer, unassigned) [Compound 374]
< 100 nM	CN=[S@@](C)(=O)c1sc(N2CCCN(c3ccc(-c4ccccc4F)cc3)C2=O)nc1C (single isomer, unassigned) [Compound 147]
1000 to 5000 nM	Cc1nc(N2CCCN(c3ccc(-c4cncc5nn(C)cc45)cc3)C2=O)sc1S(N)(=O)=O [Compound 271]
100 to 1000 nM	Cc1nc(N2CCCN(c3ccc(-c4cc(F)ccc4-c4cnn(C)c4)cc3)C2=O)sc1S(N)(=O)=O [Compound 207]
< 100 nM	Cc1nc(N2CCCN(c3ccc(-c4cc(C#N)cc5nsnc45)cc3)C2=O)sc1S(N)(=O)=O [Compound 304]
< 100 nM	CCC[S@@](=N)(=O)c1sc(N2CCCN(c3ccc(-c4cc(F)cc(F)c4F)cc3)C2=O)nc1C (single isomer, unassigned) [Compound 424]
< 100 nM	Cc1nc(N2C[C@H](C(C)(C)F)CN(c3ccc(-c4cc(F)ccc4F)cc3)C2=O)sc1S(N)(=O)=O (single isomer, unassigned) [Compound 352]
< 100 nM	Cc1nc(N2C[C@H](C(F)F)CN(c3ccc(-c4cc(F)ccc4F)cc3)C2=O)sc1S(N)(=O)=O (single isomer, unassigned) [Compound 350]
< 100 nM	Cc1nc(N2C[C@@H](O)CN(c3ccc(-c4cc(F)ccc4F)cc3)C2=O)sc1S(N)(=O)=O (single isomer, unassigned) [Compound 355]
< 100 nM	COCc1c(F)cc(F)cc1-c1ccc(N2CCCN(c3nc(C)c(S(N)(=O)=O)s3)C2=O)cc1 [Compound 221]
< 100 nM	Cc1nc(N2CCCN(c3ccc(-c4ccccc4C#CC4CC4)cc3)C2=O)sc1S(N)(=O)=O [Compound 220]
< 100 nM	Cc1nc(N2CCCCN(c3ccc(-c4cccc5ncsc45)cc3)C2=O)sc1[S@@](C)(=N)=O (single isomer, unassigned) [Compound 429]
< 100 nM	Cc1nc(N2C[C@@H](C(C)(C)O)CN(c3ccc(-c4cc(F)ccc4F)cc3)C2=O)sc1S(N)(=O)=O (single isomer, unassigned) [Compound 344]
100 to 1000 nM	Cc1nc(N2CCCN(c3ccc(-c4cc(F)ccc4F)cc3)C2=O)sc1S(=O)(=O)NC(C)(C)CO [Compound 402]
1000 to 5000 nM	Cc1nc(N2CCCN(c3ccc(-c4cccc5c4cnn5S(C)(=O)=O)cc3)C2=O)sc1S(N)(=O)=O [Compound 57]
1000 to 5000 nM	Cc1nc(N2CCCN(c3ccc(-c4cc(F)cc5c(C)c(C#N)sc45)cc3)C2=O)sc1S(N)(=O)=O [Compound 280]
< 100 nM	Cc1nc(N2CCCN(c3ccc(-c4cc(C(F)(F)F)cc5c4ccn5C)cc3)C2=O)sc1S(N)(=O)=O [Compound 246]
< 100 nM	COCCCCCCCCCCNS(=O)(=O)c1sc(N2CCCN(c3ccc(-c4cc(F)ccc4F)cc3)C2=O)nc1C [Compound 421]
< 100 nM	Cc1nc(N2CCCN(c3ccc(-c4cc(F)cc5c4c(C)cn5C)cc3)C2=O)sc1S(N)(=O)=O [Compound 291]
< 100 nM	Cc1nc(N2C[C@@H](C(C)(C)F)CN(c3ccc(-c4cc(F)ccc4F)cc3)C2=O)sc1S(N)(=O)=O (single isomer, unassigned) [Compound 351]
1000 to 5000 nM	Cc1nc(N2CCCN(c3ccc(-c4ccc(C#N)c5nsnc45)cc3)C2=O)sc1S(N)(=O)=O [Compound 286]

EC50	Structure (SMILES)
< 100 nM	COc1c(F)cc(F)cc1-c1ccc(N2CC(F)(F)CN(c3nc(C)c(S(N)(=O)=O)s3)C2=O)cc1 [Compound 375]
1000 to 5000 nM	Cc1nc(N2CCCN(c3ccc(-c4cc(C(C)(F)F)cs4)cc3)C2=O)sc1S(N)(=O)=O [Compound 241]
< 100 nM	Cc1nc(N2CCCN(c3ccc(-c4ccccc4F)cc3)C2=O)sc1[S@](C)(=N)=O (single isomer, unassigned) [Compound 143]
< 100 nM	Cc1nc(N2CCCN(c3ccc(-c4cccc5c4C(F)(F)CO5)cc3)C2=O)sc1S(N)(=O)=O [Compound 264]
100 to 1000 nM	COc1ccc(-c2ccc(N3CCCN(c4nc(C)c(S(N)(=O)=O)s4)C3=O)cc2)c2ccn(C)c12 [Compound 296]
1000 to 5000 nM	Cc1nc(N2CCCN(c3ccc(-c4cc(C(F)(F)F)cc5c4c(C#N)cn5C)cc3)C2=O)sc1S(N)(=O)=O [Compound 290]
1000 to 5000 nM	Cc1nc(N2CC3(CC3)CN(c3ccc(-c4nnco4)cc3)C2=O)sc1S(N)(=O)=O [Compound 335]
< 100 nM	Cc1nc(N2C[C@@H](C)CN(c3ccc(-c4ccccc4F)cc3)C2=O)sc1S(N)(=O)=O [Compound 317]
100 to 1000 nM	Cc1nc(N2CCCN(c3ccc(-c4ccccc4OC4CC4)cc3)C2=O)sc1S(N)(=O)=O [Compound 200]
< 100 nM	Cc1nc(N2CC(C)CN(c3ccc(-c4ccccc4)cc3)C2=O)sc1S(N)(=O)=O (centres unmarked) [Compound 326]
1000 to 5000 nM	Cc1nc(N2CCCN(c3ccc(-c4cc(F)ccc4C#CC(C)(C)O)cc3)C2=O)sc1S(N)(=O)=O [Compound 19, 2-(3-(5′-Fluoro-2′-(3-hydroxy-3-methylbut-1-yn-1-yl)-[1,1′-biphenyl]-4-yl)-2-oxotetrahydropyrimidin-1(2H)-yl)-4-methylthiazole-5-sulfonamide]
< 100 nM	Cc1nc(N2CC3(CCCC3)CN(c3ccc(-c4cc(F)ccc4F)cc3)C2=O)sc1S(N)(=O)=O [Compound 336]
< 100 nM	Cc1nc(N2CCCN(c3ccc(-c4cc(F)ccc4F)cc3)C2=O)sc1S(=O)(=O)NCC1COC1 [Compound 404]
< 100 nM	Cc1nc(N2CCCCN(c3ccc(-c4cc(F)ccc4F)cc3)C2=O)sc1S(C)(=N)=O (centres unmarked) [Compound 154]
100 to 1000 nM	Cc1nc(N2CCCN(c3ccc(-c4cc(F)cc5cc(C(N)=O)sc45)cc3)C2=O)sc1S(N)(=O)=O [Compound 254]
< 100 nM	Cc1nc(N2CCCN(c3ccc(-c4cc(F)ccc4F)cc3)C2=O)sc1S(=O)(=O)NCCCCCCCCCCO [Compound 420]
< 100 nM	Cc1nc(N2CCCCN(c3ccc(-c4cc(F)ccc4F)cc3)C2=O)sc1[S@](C)(=N)=O (single isomer, unassigned) [Compound 427]
< 100 nM	COc1c(F)cc(F)cc1-c1ccc(N2CC(C(F)(F)F)CN(c3nc(C)c(S(N)(=O)=O)s3)C2=O)cc1 (centres unmarked) [Compound 372]
< 100 nM	COCCNS(=O)(=O)c1sc(N2CCCN(c3ccc(-c4cc(F)ccc4F)cc3)C2=O)nc1C [Compound 387]
< 100 nM	Cc1nc(N2CCCN(c3ccc(-c4cccc(Cl)c4)cc3)C2=O)sc1S(N)(=O)=O [Compound 191]
< 100 nM	Cc1nc(N2CCCN(c3ccc(-c4ncccc4F)cc3)C2=O)sc1S(=O)(=O)NC1CC1 [Compound 409]
100 to 1000 nM	Cc1nc(N2CCCN(c3ccc(-c4cccc5c4C(F)(F)CCO5)cc3)C2=O)sc1S(N)(=O)=O [Compound 266]
< 100 nM	Cc1nc(N2CCCN(c3ccc(-c4cc(Cl)cc(F)c4F)cc3)C2=O)sc1S(N)(=O)=O [Compound 214]

same assay, conditions: Human alphaherpesvirus 2, Vero, 120 h, Vero cells, 5 days

EC50	Structure (SMILES)
28 nM	Cc1nc(N2CCN(c3ccc(-c4cc(F)cc5nsnc45)cc3)C2=O)sc1S(N)(=O)=O [Example 314]

— patent US20260103471A1, “CYCLIC UREA THIAZOLYL COMPOUNDS FOR TREATMENT OF HSV” (Assembly Biosciences, Inc., priority 2022, published 2026)
